Reference: patent US6858642B1, “Indole derivatives” (Neurim Pharmaceuticals (1991) Ltd., priority 1999, dated 2005)
Like-named read-outs stand apart in the source and are kept apart here.

Legend:
[1] = Scavenging activity on DPPH radicals (antioxidant effect); conditions: 10 μM addition; decrease in A517 of DPPH after 20 min at room temperature
Procedure: Radical scavenging activity was assayed in duplicates according to Blois, M. S., Nature, 1958, 181:1199. The reaction mixture contained 3 ml of 01 mM DPPH (in 95% ethanol) and 0.5 ml of the test compound. After 20 min. incubation at room temperature A517 was determined. The scavenging activity was measured as the decrease in A517 of the DPPH radical expressed as a percentage of the control value.

[2] = tested on: adult castrated male rats; assay: Androgen-dependent regrowth of ventral prostate and seminal vesicles in castrated rats, compounds given orally in drinking water; format: in vivo, rat; conditions: for Relative potency on testosterone-mediated prostate re-growth: comparison among compounds; for Dose dependence of the effect on prostate re-growth: 0.01 to 10 mg/l drinking water; for IC50: Rattus norvegicus, feed or water, read-out: IC50 on prostate re-growth
Source text: The effects of orally administered compounds of the invention, MLP-76,77, 79 and 92, on androgen-dependent prostatal regrowth in adult castrated male rats was investigated Male rats (2.5 months old) were castrated under anesthesia and left to recover for 7 days. During this period, the average weight of the prostate decreased by approximately 75%. Beginning on day 7 after castration, the rats were given daily subcutaneous injections of either oil vehicle (control) or oil vehicle containing testosterone propionate (1 mg/kg body weight per day) for 4 days at 1 hour before lights off. […] In the morning following the last inject ion, the rats were sacrificed and the seminal vesicles and ventral prostates were removed and weighed.

[3] = Distribution of 125I-labelled compounds in organs of the adult male rat 1 h after ip injection; format: in vivo; conditions: retention pattern 1 h after ip injection
Procedure: The distribution of MLP-92 and MLP-77 in various organs of the rat was examined. 100 mcl saline containing 1×10^6 dpm ^125l-labelled compounds of the invention (labelling as described by Vakkuri et al., Acta Endocrinol., 106, 152-7, 1984) were injected (ip) to adult male rats. The rats were sacrificed 1 h after injection and various organs were dissected out and weighted. The contents of the radioactive derivatives in the rat organs (Brain, Hypothalamus, Pituitary, Eyes, Thyroid, Heart, Lungs, Kidneys. Spleen, Testis, Prostate and seminal vesicle) were determined using a gamma-counter and the results are presented as dpm/g organ wet-weight.

[4] = Table 2, 10 mg/l drinking water
[5] = Table 2, testosterone + compound 10 mg/l drinking water, 4 days
[6] = Table 3, 0.01 mg/l drinking water
[7] = Table 3, 0.1 mg/l drinking water
[8] = Table 3, testosterone + compound 0.01 mg/l drinking water
[9] = Table 3, testosterone + compound 0.1 mg/l drinking water
[10] = Table 2, testosterone propionate 1 mg/kg per day sc alone, 4 days
[11] = Table 3 (second group), testosterone propionate 1 mg/kg per day sc alone

Compound	Relative ratio of scavenging activity compared with Vitamin E (tocopherol) [1]	A = % inhibition of testosterone-stimulated growth (prostate) [2, 4] [%]	B = % inhibition of testosterone-stimulated growth (seminal vesicles) [2, 4] [%]	Prostate (mg/g body weight) [2, 5] [mg/g body weight]	Seminal Vesicles (mg/g body weight) [2, 5] [mg/g body weight]	Accumulation in the prostate [3]	other results
O=C(O)C=Cc1ccc(O)c(O)c1 [Caffeic acid, 3,4-Dihydroxycinnamic acid]	2.8	–	–	–	–	–	–
COc1ccc2[nH]cc(CCNC(=O)c3ccco3)c2c1 [MLP-76, 5-Methoxy-3-(2-(2-furamido)ethyl)indole]	–	66	44	0.49 ± 0.09	1.82 ± 0.25	–	Relative potency on testosterone-mediated prostate re-growth ([2]; Table 2): more potent then MLP-79, MLP-77 and melatonin
COc1ccc2[nH]cc(CCNC(=O)c3ccccc3OC(C)=O)c2c1 [MLP-77]	–	40	−18	0.57 ± 0.05	2.69 ± 0.49	selective accumulation	–
COc1ccc2[nH]cc(CCNC(=O)C3CCCO3)c2c1 (stereo not drawn) [MLP-79, 5-Methoxy-3-(2-(tetrahydro-2-furamido)ethyl)indole]	–	54	23	0.50 ± 0.04	2.00 ± 0.39	selective accumulation	–
COc1ccc2[nH]cc(CCNCC3CCCO3)c2c1 (stereo not drawn) [MLP-92, 5-Methoxy-3-(2-(tetrahydro2-furylmethylamino)ethyl)indole]	–	66	51	0.49 ± 0.04	1.54 ± 0.21	selective accumulation	Dose dependence of the effect on prostate re-growth [2]: dose-dependent; IC50 [2]: 0.088 µM; A = % inhibition of testosterone-stimulated growth (prostate) [2, 6]: 19%; B = % inhibition of testosterone-stimulated growth (seminal vesicles) [2, 6]: 28%; A = % inhibition of testosterone-stimulated growth (prostate) [2, 7]: 62%; B = % inhibition of testosterone-stimulated growth (seminal vesicles) [2, 7]: 37%; Prostate (mg/g body weight) [2, 8]: 0.57 ± 0.04 mg/g body weight; Seminal Vesicles (mg/g body weight) [2, 8]: 1.57 ± 0.25 mg/g body weight; Prostate (mg/g body weight) [2, 9]: 0.46 ± 0.1 mg/g body weight; Seminal Vesicles (mg/g body weight) [2, 9]: 1.45 ± 0.13 mg/g body weight; Relative potency on testosterone-mediated prostate re-growth ([2]; Table 2): more potent then MLP-79, MLP-77 and melatonin
COc1ccc2[nH]cc(CCNC(C)=O)c2c1 [Melatonin, reference compound]	–	44	30	0.55 ± 0.08	1.88 ± 0.03	–	Dose dependence of the effect on prostate re-growth [2]: dose-dependent; IC50 ([2]; dose-dependent effect, compound in drinking water): 0.23 µM; A = % inhibition of testosterone-stimulated growth (prostate) [2, 6]: −15%; B = % inhibition of testosterone-stimulated growth (seminal vesicles) [2, 6]: 10%; A = % inhibition of testosterone-stimulated growth (prostate) [2, 7]: 31%; B = % inhibition of testosterone-stimulated growth (seminal vesicles) [2, 7]: 30%; Prostate (mg/g body weight) [2, 8]: 0.66 ± 0.08 mg/g body weight; Seminal Vesicles (mg/g body weight) [2, 8]: 1.81 ± 0.28 mg/g body weight; Prostate (mg/g body weight) [2, 9]: 0.54 ± 0.09 mg/g body weight; Seminal Vesicles (mg/g body weight) [2, 9]: 1.55 ± 0.24 mg/g body weight; Effect on testosterone-mediated re-growth of the ventral prostate gland ([2]; in the presence of testosterone (Table 2)): decreased significantly
CCC(=O)O[C@H]1CC[C@H]2[C@@H]3CCC4=CC(=O)CC[C@]4(C)[C@H]3CC[C@]12C [Testosterone, testosterone propionate, reference compound]	–	–	–	–	–	–	Prostate (mg/g body weight) [2, 10]: 0.77 ± 0.02 mg/g body weight; Seminal Vesicles (mg/g body weight) [2, 10]: 2.38 ± 0.16 mg/g body weight; Prostate (mg/g body weight) [2, 11]: 0.62 ± 0.1 mg/g body weight; Seminal Vesicles (mg/g body weight) [2, 11]: 1.95 ± 0.24 mg/g body weight
O=C1O[C@H]([C@@H](O)CO)C(O)=C1O [Vitamin C (ascorbic acid), ascorbic acid]	1	–	–	–	–	–	–
COc1ccc2[nH]cc(CCNC(=O)/C=C/c3ccc(O)c(O)c3)c2c1 [caffeic acid 5-methoxytryptamide, Caffeic Acid 5-Methoxytryptamide]	3.2	–	–	–	–	–	–
tocopherol [Vitamin E (tocopherol)]	1	–	–	–	–	–	–
